Measured values reported in patent US20250352559A1, “Transdermal Delivery Composition for Delivery of at least one Glucose Controlling Agent, and Method of Delivering at least one Glucose Controlling Agent” (Skinvisible Pharmaceuticals, Inc., priority 2024, published 2025).

What was measured:
3T3-LI preadipocytes = details: in vitro; cited from earlier work
[1] = tested on: animal models of diet-induced obesity; details: cited from earlier work
[2] = preclinical studies, therapeutic doses; cited from earlier work
[3] = cited from earlier work
[4] = Franz Cell study, rate of diffusion across a cellulose membrane; type: in vitro ADME; details: after 6 hours, transdermal formulation of 1% THCV
Description: A transdermal formulation of 1% THCV was prepared according to Table 1. The THCV formulation was subjected to a Franz Cell study, measuring the rate of diffusion across a cellulose membrane. As illustrated by the results, after 6 hours, 6.08 mg of THCV diffused across the cellulose membrane. The total dose of THCV applied to the membrane was 11.63 mg, and this calculates to a delivered dose of 52.3% of the THCV which is unexpected.

Row | Molecule | adipocyte differentiation and lipid accumulation (3T3-LI preadipocytes) | body weight gain, adipose tissue mass, glucose tolerance and insulin sensitivity [1] | safety profile and tolerability [2] | further results
1 | CCCCCCc1nc(-c2ccc(Cl)cc2)n(-c2ccc(Cl)cc2Cl)n1 [LH-21] | inhibit adipocyte differentiation and lipid accumulation | reduce body weight gain, decrease adipose tissue mass, and improve glucose tolerance and insulin sensitivity | favorable safety profiles and are well-tolerated at therapeutic doses | 
2 | C[C@H](NC(=O)C(C)(C)Oc1ccc(C(F)(F)F)cn1)[C@@H](Cc1ccc(Cl)cc1)c1cccc(C#N)c1 [taranabant] |  | reduce body weight gain, decrease adipose tissue mass, and improve glucose tolerance and insulin sensitivity |  | body weight and metabolic parameters in clinical trials ([3]; clinical trials for the treatment of obesity): promising results in reducing body weight and improving metabolic parameters
3 | Cc1c(C(=O)NN2CCCCC2)nn(-c2ccc(Cl)cc2Cl)c1-c1ccc(Cl)cc1 [rimonabant] |  | reduce body weight gain, decrease adipose tissue mass, and improve glucose tolerance and insulin sensitivity |  | clinical safety ([3]; marketed use, later withdrawn): increased risk of psychiatric adverse effects
4 | CCCCCc1cc(O)cc(O)c1 [Olivetol] | inhibit adipocyte differentiation and lipid accumulation | reduce body weight gain, decrease adipose tissue mass, and improve glucose tolerance and insulin sensitivity | favorable safety profiles and are well-tolerated at therapeutic doses | 
5 | Tetrahydrocannabivarin [THCV] |  |  |  | delivered dose of the THCV ([4]; 6.08 mg of 11.63 mg applied): 52.3%; THCV diffused across the cellulose membrane ([4]; total dose applied 11.63 mg): 6.08 mg
